# Read-outs that look alike come from different tables or passages of the source.
# How the values were obtained:
# [1] = system: human embryonic lung fibroblasts (HELF); assay: Anti-cellular effect on HELF cells in the anti-HCMV screening test
# Procedure: (§1) The anti-HCMV effect was determined in a screening test system in 96-well microtitre plates, making use of human embryonic lung fibroblasts (HELF) cell cultures. The influence of the substances on the spread of the cytopathogenic effect was compared with that of the reference substance ganciclovir (Cymevene® sodium), a clinically approved anti-HCMV chemotherapeutic agent.
# (§2) The substances dissolved in DMSO (dimethyl sulphoxide) (at 50 mM concentration) are investigated on microtitre plates (96-well) at final concentrations of 1,000-0.00048 μM (micromolar) in double determinations (4 substances/plate). The conditions are such that both toxic and cytostatic effects of the substances are recorded. Once the appropriate substance dilutions (1:2) have been made on the microtitre plate, a suspension of 50-100 HCMV-infected HELF cells and 3×10^4 non-infected HELF cells in Eagle's MEM (minimal essential medium) containing 10% foetal calf serum is added to each well and the plates are then incubated at 37° C. in a CO2 incubator for a period of 6 days. […] After staining with neutral red and fixing with formalin/methanol, the plates are evaluated with the aid of a projection microscope (plaque viewer).
# HCMV (Davis) = assay: Anti-HCMV screening test: inhibition of the cytopathogenic effect in HELF cell cultures; format: cell-based, human cytomegalovirus; conditions: for IC50: HCMV (Davis)-infected HELF cells, 6 days, concentration causing 50% inhibition of the CPE; for SI: selectivity index, defined by footnote 3 (drawing 26), HELF CIC50 versus HCMV IC50
# Procedure: as §1, §2
"CIC50 (HELF) ([1]; HELF cells, 6 days incubation, highest concentration which does not show any obvious anticellular effect)","IC50 (HCMV (Davis); Human betaherpesvirus 5, 144 h)",CIC50 (HELF) [1],IC50 (HCMV (Davis)),Structure (SMILES),SI (HCMV (Davis))
125 µM,2 to 4 µM,–,–,"Nc1nc(O)c2ncn(COC(CO)CO)c2n1 [Cymevene.Na, ganciclovir]",32-64
–,–,2.8 µM,0.004 µM,"Cc1ccc(S(=O)(=O)NC(=N)NCCC[C@H](NC(=O)OCc2ccccc2)C(=O)N[C@H](C(=O)NC(C=O)Cc2ccccc2)C(C)(C)C)cc1 (stereo partly drawn) [Example 50, (2R,S)-2-[Nα-(Benzyloxycarbonyl)-N^G -(4-methyl-phenylsulphonyl)-S-arginyl-S-(tert-butyl)glycinyl]amino-3-phenyl-propan-1-al]",700

# Reference: patent publication US5646121A, “Pseudopeptides with antiviral activity” (Bayer Aktiengesellschaft, priority 1993, dated 1997)
